Where two headings read alike, the source gives them in different places.
What was measured:
IKKε = molecular target: T1, IKKε (Homo sapiens, UniProt Q14164); experiment: In-vitro IKKε kinase assay ([γ33]ATP filter-plate); format: biochemical
T1 construct: His-tag; made in house; host or cells: Sf9 insect cells
T1 sequence (Q14164 1-716): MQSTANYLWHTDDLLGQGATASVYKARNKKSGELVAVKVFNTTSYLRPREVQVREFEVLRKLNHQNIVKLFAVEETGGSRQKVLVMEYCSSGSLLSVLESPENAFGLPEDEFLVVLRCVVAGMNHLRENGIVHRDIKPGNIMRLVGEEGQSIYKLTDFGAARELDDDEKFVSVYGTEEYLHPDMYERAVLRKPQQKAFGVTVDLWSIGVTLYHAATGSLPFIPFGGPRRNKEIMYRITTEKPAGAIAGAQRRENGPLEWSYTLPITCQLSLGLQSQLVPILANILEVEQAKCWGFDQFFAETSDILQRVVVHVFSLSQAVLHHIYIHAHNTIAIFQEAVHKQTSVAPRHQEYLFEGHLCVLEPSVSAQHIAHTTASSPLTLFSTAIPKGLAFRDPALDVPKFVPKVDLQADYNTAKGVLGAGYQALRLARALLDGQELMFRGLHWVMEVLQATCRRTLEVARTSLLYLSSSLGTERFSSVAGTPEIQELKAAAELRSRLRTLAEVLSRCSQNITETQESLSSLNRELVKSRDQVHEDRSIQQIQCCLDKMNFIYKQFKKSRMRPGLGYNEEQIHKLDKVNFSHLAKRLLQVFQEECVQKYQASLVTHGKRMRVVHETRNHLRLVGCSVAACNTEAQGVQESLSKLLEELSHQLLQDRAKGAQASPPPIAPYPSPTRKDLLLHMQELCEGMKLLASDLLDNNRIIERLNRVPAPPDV
Method in brief: (§1)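 His-tagged Sf9-expressed kinases at 0.1 or 0.02 μg/ml (TBK1) and 0.1 or 0.015 μg/ml (IKKε) for normal and sensitized formats, with myelin basic protein or casein substrate. ATP was at 2×Km (60 μM TBK1, 32 μM IKKε) plus 0.3 μCi [γ33]ATP. Reactions ran 30-45 min, were captured on P-81 filters, and counts were normalized to DMSO.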

TBK1 = molecular target: T2, TBK1 (Homo sapiens, UniProt Q9UHD2); experiment: In-vitro TBK1 kinase assay ([γ33]ATP filter-plate); format: biochemical
T2 construct: His-tag; made in house; host or cells: Sf9 insect cells
T2 sequence (Q9UHD2 1-729): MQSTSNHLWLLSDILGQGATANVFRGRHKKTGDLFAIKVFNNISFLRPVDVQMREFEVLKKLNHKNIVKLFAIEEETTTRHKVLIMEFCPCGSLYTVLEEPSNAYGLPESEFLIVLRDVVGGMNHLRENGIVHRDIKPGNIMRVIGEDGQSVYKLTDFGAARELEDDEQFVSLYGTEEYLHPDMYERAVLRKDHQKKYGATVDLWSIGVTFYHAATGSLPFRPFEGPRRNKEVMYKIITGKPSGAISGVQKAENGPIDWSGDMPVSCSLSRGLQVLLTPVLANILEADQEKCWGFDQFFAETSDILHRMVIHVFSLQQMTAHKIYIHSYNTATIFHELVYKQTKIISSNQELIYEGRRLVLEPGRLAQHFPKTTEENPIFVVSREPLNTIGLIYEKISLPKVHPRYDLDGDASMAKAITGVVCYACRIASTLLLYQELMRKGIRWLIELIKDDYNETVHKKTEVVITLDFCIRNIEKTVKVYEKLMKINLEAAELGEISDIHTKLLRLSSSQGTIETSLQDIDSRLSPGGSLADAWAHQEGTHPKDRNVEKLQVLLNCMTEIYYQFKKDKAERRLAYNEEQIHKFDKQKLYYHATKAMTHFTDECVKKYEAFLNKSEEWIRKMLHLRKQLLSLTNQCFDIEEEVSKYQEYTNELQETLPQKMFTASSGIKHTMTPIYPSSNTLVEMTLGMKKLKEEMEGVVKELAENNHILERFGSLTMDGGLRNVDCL
Method in brief: as §1

[1] = system: IKKε-mediated phosphorylation of IRF3; experiment: In-situ phosphorylation of IRF3 (pIRF3 Ser396 ELISA) in HEK293T cells cotransfected with IRF3 and IKKε; format: cell-based; details: Homo sapiens, HEK-293T
Method in brief: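 For the IRF3 ELISA, HEK293T cells cotransfected with IRF3 and IKKε were replated at 20,000/well and treated 20 h. Phospho-Ser396 IRF3 was measured by ELISA and normalised to DMSO, with viability checked by CellTiter-Glo. For IRF7, cells transfected with IRF7 and TBK1 were treated overnight, and pSer477/Ser479 IRF7 was detected by Western blot.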

[2] = text bins, read-out: IC50 for inhibition of the kinase activity of IKKε
[3] = text bins, read-out: IC50 for inhibition of the kinase activity of TBK1
[4] = HEK293T cells, 20 hours, text bins, read-out: IC50 for inhibition of the in-situ IKKε-mediated phosphorylation of IRF3

| IC50 (IKKε; [2]) | IC50 (TBK1; [3]) | IC50 [1, 4] | IC50 (IKKε; Table 3, read-out: IKKε IC50) | IC50 (TBK1; Table 3, read-out: TBK1 IC50) | IC50 ([1]; HEK293T cells in culture, Table 3, read-out: pIRF3 ELISA IC50) | SMILES |
| --- | --- | --- | --- | --- | --- | --- |
| < 5 nM | < 10 nM | < 100 nM |  |  |  | N#Cc1cc(-c2ccnc(Nc3ccc(CN4CCOCC4)cc3)n2)ccc1OC1CCOCC1 [compound 510, 5-(2-{[4-(morpholin-4-ylmethyl)phenyl]amino}pyrimidin-4-yl)-2-(tetrahydro-2H-pyran-4-yloxy)benzonitrile] |
| < 5 nM | < 10 nM | 100 to 250 nM |  |  |  | N#Cc1cc(-c2ccnc(Nc3ccc(CN4CCN(CCO)CC4)cc3)n2)ccc1OC1CCOCC1 [compound 511, 5-{2-[(4-{[4-(2-hydroxyethyl)piperazin-1-yl]methyl}phenyl)amino]pyrimidin-4-yl}-2-(tetrahydro-2H-pyran-4-yloxy)benzonitrile] |
| < 5 nM | < 10 nM | < 100 nM |  |  |  | Cc1ccc(Nc2nccc(-c3ccc(OC4CCOCC4)c(C#N)c3)n2)cc1OCCCN1CCOCC1 [compound 517, 5-[2-({4-Methyl-3-[3-(morpholin-4-yl)propoxy]phenyl}amino)pyrimidin-4-yl]-2-(tetrahydro-2H-pyran-4-yloxy)benzonitrile] |
| < 5 nM | < 10 nM | < 100 nM |  |  |  | N#Cc1cc(-c2ccnc(Nc3cccc(OCCN4CCOCC4)c3)n2)ccc1OC1CCOCC1 [compound 518, 5-[2-({3-[2-(Morpholin-4-yl)ethoxy]phenyl}amino)pyrimidin-4-yl]-2-(tetrahydro-2H-pyran-4-yloxy)benzonitrile] |
| < 5 nM | < 10 nM | < 100 nM |  |  |  | N#Cc1cc(-c2ccnc(Nc3ccc(F)c(OCCCN4CCOCC4)c3)n2)ccc1OC1CCOCC1 [compound 519, 5-[2-({4-Fluoro-3-[3-(morpholin-4-yl)propoxy]phenyl}amino)pyrimidin-4-yl]-2-(tetrahydro-2H-pyran-4-yloxy)benzonitrile] |
| < 5 nM | < 10 nM | < 100 nM |  |  |  | COc1ccc(Nc2nccc(-c3ccc(OC4CCOCC4)c(C#N)c3)n2)cc1OCCCC1CCN(C(C)C)CC1 [compound 520, 5-{2-[(4-medthoxy-3-{3-[1-(propan-2-yl)piperidin-4-yl]propoxy}phenyl)amino]pyrimidin-4-yl}-2-(tetrahydro-2H-pyran-4-yloxy)benzonitrile] |
| < 5 nM | < 10 nM | < 100 nM |  |  |  | CCN1CCC(CCCOc2cc(Nc3nccc(-c4ccc(OC5CCOCC5)c(C#N)c4)n3)ccc2OC)CC1 [compound 521, 5-[2-({3-[3-(1-ethylpiperidin-4-yl)propoxy]-4-methoxyphenyl}amino)pyrimidin-4-yl]-2-(tetrahydro-2H-pyran-4-yloxy)benzonitrile] |
| < 5 nM | < 10 nM | < 100 nM |  |  |  | COc1ccc(Nc2nccc(-c3ccc(OC4CCOCC4)c(C#N)c3)n2)cc1OCCCC1CCNCC1 [compound 522, 5-[2-({4-methoxy-3-[3-(piperidin-4-yl)propoxy]phenyl}amino)pyrimidin-4-yl]-2-(tetrahydro-2H-pyran-4-yloxy)benzonitrile] |
| < 5 nM | < 10 nM | < 100 nM |  |  |  | COc1ccc(Nc2nccc(-c3ccc(OC4CCOCC4)c(C#N)c3)n2)cc1OCCCN1CCN(C(C)C)CC1 [compound 523, 5-{2-[(4-methoxy-3-{3-[4-(propan-2-yl)piperazin-1-yl]propoxy}phenyl)amino]pyrimidin-4-yl}-2-(tetrahydro-2H-pyran-4-yloxy)benzonitrile] |
| < 5 nM | < 10 nM | 100 to 250 nM |  |  |  | COc1ccc(Nc2nccc(-c3ccc(OC4CCOCC4)c(C#N)c3)n2)cc1OCCCN1CCN(C(=O)C(C)C)CC1 [compound 524, 5-{2-[(4-methoxy-3-{3-[4-(2-methylpropanoyl)piperazin-1-yl]propoxy}phenyl)amino]pyrimidin-4-yl}-2-(tetrahydro-2H-pyran-4-yloxy)benzonitrile] |
| < 5 nM | < 10 nM | < 100 nM |  |  |  | CCN1CCN(CCCOc2cc(Nc3nccc(-c4ccc(OC5CCOCC5)c(C#N)c4)n3)ccc2OC)CC1 [compound 525, 5-[2-({3-[3-(4-ethylpiperazin-1-yl)propoxy]-4-methoxyphenyl}amino)pyrimidin-4-yl]-2-(tetrahydro-21H-pyran-4-yloxy)benzonitrile] |
| < 5 nM | < 10 nM | 100 to 250 nM |  |  |  | COc1ccc(Nc2nccc(-c3ccc(OC4CCOCC4)c(C#N)c3)n2)cc1OCCCN1CCNCC1 [compound 526, 5-[2-({4-methoxy-3-[3-(piperazin-1-yl)propoxy]phenyl}amino)pyrimidin-4-yl]-2-(tetrahydro-2H-pyran-4-yloxy)benzonitrile] |
| < 5 nM | < 10 nM | < 100 nM |  |  |  | N#Cc1cc(-c2ccnc(Nc3ccc(OCCCN4CCOCC4)cc3)n2)ccc1OC1CCOCC1 [compound 527, 5-[2-({4-[3-(morpholin-4-yl)propoxy]phenyl}amino)pyrimidin-4-yl]-2-(tetrahydro-2H-pyran-4-yloxy)benzonitrile] |
| 5 to 50 nM | < 10 nM | 250 to 500 nM |  |  |  | N#Cc1cc(-c2ccnc(Nc3cccc(OCCCN4CCOCC4)c3)n2)ccc1OC1CCOCC1 [compound 528, 5-[2-({3-[3-(morpholin-4-yl)propoxy]phenyl}amino)pyrimidin-4-yl]-2-(tetrahydro-2H-pyran-4-yloxy)benzonitrile] |
| < 5 nM | < 10 nM | < 100 nM |  |  |  | COc1ccc(Nc2nccc(-c3ccc(OC4CCOCC4)c(C#N)c3)n2)cc1OCCCN1CCOCC1 [compound 529, 5-[2-({4-methoxy-3-[3-(morpholin-4-yl)propoxy]phenyl}amino)pyrimidin-4-yl]-2-(tetrahydro-2H-pyran-4-yloxy)benzonitrile] |
| < 5 nM | < 10 nM | < 100 nM |  |  |  | CCN(CC)CCOc1ccc(Nc2nccc(-c3ccc(OC4CCOCC4)c(C#N)c3)n2)cc1OC [compound 530] |
| < 5 nM | < 10 nM | < 100 nM |  |  |  | CCN(CC)CCOCCOc1cc(Nc2nccc(-c3ccc(OC4CCOCC4)c(C#N)c3)n2)ccc1OC [compound 531, 5-{2-[(3-{2-[2-(diethylamino)ethoxy]ethoxy}-4-methoxyphenyl)amino]pyrimidin-4-yl}-2-(tetrahydro-2H-pyran-4-yloxy)benzonitrile] |
| < 5 nM | < 10 nM | < 100 nM |  |  |  | Cc1ccc(Nc2nccc(-c3ccc(OC4CCOCC4)c(C#N)c3)n2)cc1OCCN1CCNCC1 [compound 533, 5-[2-({4-Methyl-3-[2-(piperazin-1-yl)ethoxy]phenyl}amino)pyrimidin-4-yl]-2-(tetrahydro-2H-pyran-4-yloxy)benzonitrile] |
| < 5 nM | < 10 nM | < 100 nM | 0.3 nM | 1.3 nM | 61.9 nM | N#Cc1cc(-c2ccnc(Nc3cccc(NC(=O)N4CCC(O)C4)c3)n2)ccc1OC1CCOCC1 (stereo not drawn) [compound 536, N-[3-({4-[3-Cyano-4-(tetrahydro-2H-pyran-4-yloxy)phenyl]pyrimidin-2-yl}amino)phenyl]-3-hydroxypyrrolidine-1-carboxamide] |

Reference: patent US20150352108A1, “AMINO-PYRIMIDINE COMPOUNDS AS INHIBITORS OF TBK1 AND/OR IKK EPSILON” (Alzheimer's Institute of America, priority 2009, published 2015)
